# Values joined by “and” are separate entries in the source; they are usually repeats but may differ in a detail not shown here. Equal values may be shown once.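 Values below derive from 48-hour exposures of cells grown in 96-well plates, with endpoints linearly interpolated between the two concentrations bracketing the appropriate inhibition level. GI50 marks 50% less growth. The concentration for full growth arrest is given as TGI.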
# Columns and labels:
# Assay in all cases: growth of human tumour cells (NCI), 48 h
# NCI-H522 lung = system: NCI-H522 lung
# HL-60(TB) leukemia = system: HL-60(TB) leukemia
# LOX IMVI melanoma = system: LOX IMVI melanoma
# NCI-H226 lung = system: NCI-H226 lung
# RPMI-8226 leukemia = system: RPMI-8226 leukemia
# UACC-62 melanoma = system: UACC-62 melanoma
# OVCAR-5 ovarian = system: OVCAR-5 ovarian
# SW-620 colon = system: SW-620 colon
Compound,GI50 (NCI-H522 lung) [µM],TGI (NCI-H522 lung),GI50 (HL-60(TB) leukemia) [µM],TGI (HL-60(TB) leukemia) [µM],GI50 (LOX IMVI melanoma) [µM],TGI (LOX IMVI melanoma),GI50 (NCI-H226 lung) [µM],TGI (NCI-H226 lung),GI50 (RPMI-8226 leukemia) [µM],TGI (RPMI-8226 leukemia) [µM],GI50 (UACC-62 melanoma) [µM],TGI (UACC-62 melanoma) [µM],GI50 (OVCAR-5 ovarian) [µM],TGI (OVCAR-5 ovarian),GI50 (SW-620 colon) [µM],TGI (SW-620 colon) [µM]
CC(=O)C1=C(O)C=C2Oc3c(C(=O)/C=C/c4cc(Cl)cc(Cl)c4)c(O)c(C)c(O)c3[C@]2(C)C1=O,0.334,0.919 µM,0.371,0.87,0.512,1.79 µM,1.21,5.49 µM,0.452,1.14,0.434,1.62,0.72,8.57 µM,0.527,2.21
CCOc1ccn(-c2ccc(F)cc2)c(=O)c1C(=O)Nc1ccc(Oc2ccnc(N)c2Cl)c(F)c1,12.3,69.5 µM,15.3,38.6,5.33,19.3 µM,10.6,> 96.1 µM,14.6,> 88.8,2.83,18.5,12.9,67 µM,5.01,38.4
O=C1C=CC(=O)c2c(O)c3c(c(O)c21)C[C@H](O)[C@H](O)[C@@H]3O,,,,2.9,,4.08 µM,,36.7 µM,,4.85,,10.1,,17.2 µM,,2.37
CCCCCCCCCC[C@H](O)[C@H](O)CC[C@@H](O)[C@H]1CC[C@@H]([C@H]2CC[C@H](CCCCCCC[C@@H](O)CC3=C[C@H](C)OC3=O)O2)O1,,62.1 µM,,6.74,2.9,3.5 µM and 24.2 µM,21.2,,16.6,50.4,,5.95,47.7,> 100 µM,47.2,> 100
Cc1cc(-c2cc(O)ccc2Cl)cc2nnc(Nc3ccc(OCCN4CCCC4)cc3)nc12,0.71,2.58 µM,0.305,0.627,1.57,3.25 µM,4.71,7.12 µM,0.207,0.442,1.7,3.33,1.65,3.14 µM,0.205,0.399
C=CCC(N[C@H](CO)c1ccccc1)c1cn(Cc2ccccc2Cl)c(=O)n(Cc2ccccc2Cl)c1=O (stereo not given in full),14.3,89.9 µM,5.87,34,6.27,19 µM,13.7,49.8 µM,3.73,12.5,7.64,27.1,25.6,> 100 µM,24.3,> 100
CCOC(=O)C(C#N)C1=CC(=O)C(=O)c2ccc(O)cc21 (stereo not given),,> 100 µM,,> 100,,> 100 µM,,> 100 µM,,> 100,,36.9,,> 100 µM,,> 100
CC1(C)CCCC(C)(C2CCC3(C)C2C(O)CC2C4(C)CCC(O)C(C)(C)C4CCC23C)O1 (stereo not given),,> 100 µM,,> 100,,> 100 µM,,> 100 µM,,,,> 100,,> 100 µM,,> 100
Clc1ccccc1-c1nnc2c(Cc3ccccc3)nc3ccccc3n12,29.1,> 100 µM,32.5,> 100,3.5,> 100 µM,6.91,> 100 µM,5.64,> 100,6.9,> 100,> 100,> 100 µM,20.7,> 100
CCCCCC/C=C\CCCCCCCCCC1=C(CN2CCN(C)CC2)C(=O)C=C(OC)C1=O,,3.01 µM,,2.97,,9.79 µM,,30 µM,,3.9,,25.5,,28.8 µM,,3.38
O=C(O)C1[O][Sb][O]C(C(=O)O)C1O (stereo not given),> 100,> 100 µM,,,> 100,> 100 µM,> 100,> 100 µM,,,> 100,> 100,> 100,> 100 µM,> 100,> 100
CC1=CC(C)(C)NN1C1=NS(=O)(=O)c2ccccc2N1C,,> 100 µM,,> 100,,> 100 µM,,> 100 µM,,,,> 100,,> 100 µM,,> 100
CC1NC(=O)C2=C1C(=O)NC(=O)C2 (stereo not given),> 100,> 100 µM,> 100,> 100,> 100,> 100 µM,> 100,> 100 µM,> 100,> 100,> 100,> 100,> 100,> 100 µM,> 100,> 100
Cn1cc(-c2cnn3c(N)c(Br)c(C4CCCNC4)nc23)cn1 (stereo not given),24.5,> 100 µM,1.62,35.1,2.71,18.9 µM,13.9,> 96 µM,4.7,27.2,8.9,28.8,6.96,> 73 µM,15.7,> 68.6
C/C(=C(\c1ccc(OCCN2CCCCCC2)cc1)c1ccc(OC(=O)c2ccccc2)cc1)c1ccc(Cl)cc1,5.27,10.6 µM,3.35,11.5,2.43,6.81 µM,5.47,11.1 µM,3.03,10.2,5.1,11.1,3.93,8.82 µM,4.04,9.42
C/C=C1/CC(C)C(C)(O)C(=O)OCC2C(O)CN3CCC(OC1=O)C23 (stereo not given),,> 100 µM,,> 100,,> 100 µM,,> 100 µM,,> 100,,> 100,,> 100 µM,,> 100
COc1ccc([C@@]23Oc4cc(OC)cc(OC)c4[C@]2(O)[C@H](O)[C@H](C(N)=O)[C@H]3c2ccccc2)cc1,,0.0737 µM and < 0.0104 µM,< 0.01,0.0785,,,,0.0935 µM and < 0.0283 µM,,,< 0.016,0.106,,0.074 µM and < 0.0291 µM,,
CCCCCCCCCCCCOC1C(CNC(=O)C2OC3OC(C)(C)OC3C2NC(=O)CN2CCN(c3ccc(OC)cc3)CC2)OC2OC(C)(C)OC21 (stereo not given),4.92,17.4 µM,2.13,4.44,3.71,12.3 µM,5.56,19.2 µM,2.13,4.73,5.44,18.3,2.52,7.5 µM,3.75,28.3

# From PubChem BioAssay (NCI)
